Test: Thermogravimetric analysis (TGA), thermal stability
Type: physicochemical
Settings: 10° C./min, nitrogen
Procedure: TGA. […] Each sample was placed in an alumina crucible and heated from 25 to 1000° C. at a heating rate of 10° C./min under a constant flow of nitrogen. […] The different thermal decomposition pattern of a-CAA further supports the hypothesis that the milling product is a co-amorphous formulation and not a physical mixture of amorphous starting materials. […] The similarity between the IR spectra of both formulations points to similarities in their local structures and is indicative of a 1:1 stoichiometry. This stoichiometry was confirmed by thermal analyses. […] The similar TGA profiles of dried c-CAA and a-CAA, shown in FIGS. 3A and 3B, further confirm that the co-amorphous and the co-crystalline formulation have the same stoichiometry and similar local structures.

Compound	decomposition temperature (stable up to)
CN(CC(=O)O)C(=N)N [creatine anhydrate]	220 °C
O=C(O)CC(O)(CC(=O)O)C(=O)O [citric acid anhydrate]	164 °C
